The text below walks through data of article PMC7827217, “Probing the Binding Requirements of Modified Nucleosides with the DNA Nuclease SNM1A” (Molecules, 2021).

One assay deals with SNM1A. More on the design: method as in PMID 31380542. Particulars: previous work; cited from earlier work.
For assay [1], the target named is T1, recombinant SNM1A (698-1040) (Homo sapiens, UniProt Q6PJP8).
T1 construct: SNM1A (698-1040) was expressed and purified as described by Allerston et al; made in house
T1 sequence (Q6PJP8 698-1040): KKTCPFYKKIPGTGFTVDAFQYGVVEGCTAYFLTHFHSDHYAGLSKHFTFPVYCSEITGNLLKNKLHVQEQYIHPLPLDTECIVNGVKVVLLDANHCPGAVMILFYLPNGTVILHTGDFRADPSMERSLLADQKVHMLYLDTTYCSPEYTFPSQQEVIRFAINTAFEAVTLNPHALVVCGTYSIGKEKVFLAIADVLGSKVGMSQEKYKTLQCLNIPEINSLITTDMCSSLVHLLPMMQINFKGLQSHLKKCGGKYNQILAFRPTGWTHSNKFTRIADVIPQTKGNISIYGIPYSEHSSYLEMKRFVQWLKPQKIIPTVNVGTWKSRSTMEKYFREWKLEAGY
The assay is described as follows: Gel-based SNM1A inhibition assay (digestion of fluorescent 21-mer oligonucleotide substrate, denaturing PAGE). The following applies: for Lowest Inhibitory Concentration: concentration gradient 1 mM to 1 µM, approximately 3-fold dilutions, 60 min at 37 °C; for Lowest Inhibitory Concentration / Inhibition of SNM1A (extent of digestion of substrate): SNM1A 2.5 nM, substrate 80 nM, 5 min preincubation; for Inhibition of SNM1A (extent of digestion of substrate): 1 mM compound, 60 min incubation (Figure 2c). The format is biochemical. How it is done: The twelve modified nucleosides (Figure 2a) were evaluated as inhibitors of recombinant SNM1A to evaluate binding to the active site, using a previously reported gel-based assay with the same 21-mer oligonucleotide substrate. The nucleosides were incubated with SNM1A for 5 min prior to the addition of the fluorescently tagged 21-mer oligonucleotide substrate and further incubation for 1 h. In the event of the nucleoside binding to the active site, digestion of the substrate proceeds less efficiently (Figure 2b). SNM1A removes nucleotide monomers from the 5′-end, generating a shorter oligonucleotide that in turn is a substrate for SNM1A and can be digested further. The size of the oligonucleotide products, analysed by gel electrophoresis, therefore indicates how strongly a compound binds to the nuclease.
SNM1A (698-1040) was expressed and purified as described by Allerston et al..
SNM1A (698-1040) was stored as a 1.0 µM solution in reaction buffer (20 mM HEPES-KOH, pH 7.5, 50 mM KCl, 10 mM MgCl2, 0.05% Triton-X, 0.1 mg/mL BSA, 5% glycerol, 0.5 mM DTT). An oligonucleotide of the sequence 5′-TTAGCAGTCAGTCAGTCATCG-Cy3-3′ was phosphorylated using T4 PNK (New England Biolabs) and used as the substrate. Modified nucleosides were added to the assay in 40% DMSO solution (10 mM or as specified). Fluorescent oligonucleotides were protected from light during incubations and gel electrophoresis.
Modified nucleosides (10 nmol or as specified) were mixed with SNM1A (698–1040) (25 fmol) in reaction buffer containing 4% DMSO (10 µL) on ice and incubated at 37 °C for 5 min. Phosphorylated oligonucleotide (0.8 pmol) was added and the reaction was incubated at 37 °C for 60 min. The reaction was stopped by the addition of stop solution (2 µL, 95% formamide, 10 mM EDTA) followed by heating to 95 °C for 3 min. The products of the reaction were analysed using gel electrophoresis; 3 µL of each reaction was used.
Oligonucleotides were separated on a 15% acrylamide 6.5 M urea gel (2.9 g urea, 2.7 mL 40% acrylamide-bisacrylamide 25:1, 1.4 mL 5× TBE (0.45 M Tris, 0.45 M boric acid, 0.01 M EDTA pH 8.0), 0.6 mL H2O) in 1X TBE at 150 V for 90 min alongside bromophenol blue and xylene cyanol as markers for 8 and 28 nt, respectively, and imaged using Typhoon FLA 9500.
Figure 2 Evaluation of modified (di)nucleosides as inhibitors of SNM1A. (a) Structures of the twelve (di)nucleosides that were evaluated as inhibitors of SNM1A; (b) schematic representation of assay; (c) gel electrophoresis showing the extent of digestion of fluorescent 21-mer oligonucleotide substrate. SNM1A (2.5 nM) was pre-incubated with the modified (di)nucleosides (1 mM) for 5 min before the oligonucleotide substrate (80 nM) was added and a further 60 min incubation. nt = nucleotides.
Figure 3 Concentration dependence of 5′-C-linked malonate nucleoside 11. Digestion of the phosphorylated oligonucleotide (80 nM) after incubation with SNM1A (2.5 nM) and nucleoside 11 (1000–1 µM) or thymidine (T) (1 mM) for 60 min at 37 °C, analysed by denaturing PAGE. SNM1A was preincubated with the modified nucleoside for 5 min at 37 °C prior to the addition of the substrate. nt = nucleotides.

As to `Cc1cn([C@H]2C[C@H](O)[C@@H](C(=O)NO)O2)c(=O)[nH]c1=O` [Compound 1], in the assay with SNM1A, the “Inhibition of SNM1A” value is listed as “inhibit SNM1A to varying degrees”.
As for `Cc1cn([C@H]2C[C@H](O)[C@@H](CCC(=O)NO)O2)c(=O)[nH]c1=O` [Compound 2], in the assay with SNM1A, the “Inhibition of SNM1A” value is listed as “inhibit SNM1A to varying degrees”.
Consider `COC(=O)C(C[C@H]1O[C@@H](n2cc(C)c(=O)[nH]c2=O)C[C@@H]1O)C(=O)O` (stereo partly shown) [Compound 9, C-(5′-Deoxythymidin-5′-yl) monomethyl sodium malonate], for which the “Lowest Inhibitory Concentration” value in assay [1] was 333 µM.
On to `Cc1cn([C@H]2C[C@H](O)[C@@H](CC(C(=O)O)C(=O)O)O2)c(=O)[nH]c1=O` [Compound 10, C-(5′-Deoxythymidin-5′-yl) disodium malonate], for which the “Lowest Inhibitory Concentration” value in assay [1] turned out to be 333 µM.
Regarding `Cc1cn([C@H]2C[C@H](O)[C@@H](CC(C(=O)O)C(=O)NO)O2)c(=O)[nH]c1=O` (stereo partly shown) [Compound 11, C-(5′-deoxythymidin-5′-yl) sodium N-hydroxymalonamide], in assay [1], the “Inhibition of SNM1A (extent of digestion of substrate)” value is “most potent overall” and the “Lowest Inhibitory Concentration” value was found to be 33 µM. The “Potency compared with previously reported compounds” value in assay [1] (various concentrations, Figure 5b) is “slightly lower potency than compound 1”.
For `Cc1cn([C@H]2C[C@H](O)[C@@H](CNC(=O)CC(=O)NO)O2)c(=O)[nH]c1=O` [Compound 15, N-(5′-Deoxythymidin-5′-yl) amido N-hydroxymalonamide], in assay [1], the “Inhibition of SNM1A (extent of digestion of substrate)” value is reported as “binds SNM1A” and the “Lowest Inhibitory Concentration” value amounted to 333 µM.
In the case of `COC(=O)CC(=O)NC1CC(n2cc(C)c(=O)[nH]c2=O)OC1CO` (stereo not shown) [Compound 26, N-(3′-Deoxythymidin-3′-yl) amido methyl malonamide], the “Inhibition of SNM1A (extent of digestion of substrate)” value in assay [1] is “inactive”.
As to `Cc1cn([C@H]2C[C@H](NC(=O)CC(=O)O)[C@@H](CO)O2)c(=O)[nH]c1=O` [Compound 27, N-(3′-Deoxythymidin-3′-yl) amido sodium malonamide], the “Lowest Inhibitory Concentration” value in assay [1] is recorded as 333 µM.
Consider `Cc1cn([C@H]2C[C@H](NC(=O)CC(=O)NO)[C@@H](CO)O2)c(=O)[nH]c1=O` [Compound 28, N-(3′-Deoxythymidin-3′-yl) amido N-hydroxymalonamide], for which, in assay [1], the “Lowest Inhibitory Concentration” value is recorded as 333 µM.
For the compound `COC(=O)C(CC1OC(n2cc(C)c(=O)[nH]c2=O)CC1O)C(=O)NC1CC(n2cc(C)c(=O)[nH]c2=O)OC1CO` (stereo not shown) [Compound 34, N-(3′-Deoxythymidin-3′-yl)-C-(5′-deoxythymidin-5′-yl) amido methyl malonate], in assay [1], the “Inhibition of SNM1A (extent of digestion of substrate)” value is “some inhibition” and the “Lowest Inhibitory Concentration” value stood at 1000 µM.
As to `Cc1cn(C2CC(O)C(CC(C(=O)O)C(=O)NC3CC(n4cc(C)c(=O)[nH]c4=O)OC3CO)O2)c(=O)[nH]c1=O` (stereo not shown) [Compound 35, N-(3′-Deoxythymidin-3′-yl)-C-(5′-deoxythymidin-5′-yl) amido sodium malonate], in assay [1], the “Inhibition of SNM1A (extent of digestion of substrate)” value is “approximately equal potency” and the “Lowest Inhibitory Concentration” value is on record as 333 µM.
Consider `Cc1cn(C2CC(O)C(CC(C(=O)NO)C(=O)NC3CC(n4cc(C)c(=O)[nH]c4=O)OC3CO)O2)c(=O)[nH]c1=O` (stereo not shown) [Compound 36, N-(3′-Deoxythymidin-3′-yl)-C-(5′-deoxythymidin-5′-yl) amido N-hydroxy malonamide], for which, in assay [1], the “Inhibition of SNM1A (extent of digestion of substrate)” value is “approximately equal potency” and the “Lowest Inhibitory Concentration” value was 333 µM.
Consider `Cc1cn([C@H]2C[C@H](O)[C@@H](CO)O2)c(=O)[nH]c1=O` [Thymidine, reference compound], for which the “Inhibition of SNM1A (extent of digestion of substrate)” value in assay [1] was “no effect on the hydrolysis of the substrate”.
